Reference: article PMC10076671, “Spider venom-derived peptide JZTX-14 prevents migration and invasion of breast cancer cells via inhibition of sodium channels” (Frontiers in Pharmacology, 2023)
“Also recorded” adds a separate entry of the source. Where a SMILES comes first, the peptide text is derived from it. Bridges are numbered along the chain shown (N, C = ends).

How the values were obtained:
[1] = biological target: T1, MDA-MB-231 sodium channels (Homo sapiens, UniProt Q14524); experiment: Whole-cell patch clamp, sodium currents in MDA-MB-231 cells; assay type: cell-based
T1 construct: host or cells: MDA-MB-231
Description: Sodium currents in experimental cells were recorded at room temperature (22°C–25°C) using an EPC-10 patch-clamp amplifier (HEKA, Germany) in a whole-cell patch-clamp configuration. Recording pipettes were made from borosilicate glass capillaries (VWR, United States) using a PC-10 puller (Narishige, Japan). The inner solution (mM): KCl 130, NaCl 15, CaCl2 0.37, MgCl2 1 EGTA 1, HEPES 10, pH 7.2, resistance was measured as 1.8 MO. The outer solution was composed of (mM): NaCl 140, KCl 3, MgCl2 1, CaCl2 1, HEPES 10, pH 7.2. To minimize voltage errors, the series resistance compensation was set to 80%. The P/4 protocol was used to subtract the linear capacitance and leakage current. Experimental data were acquired and analyzed using the pulse fit 8.0 program (HEKA, Germany). The needed concentrations of toxin dissolved in external solution were applied to the cell surface by microinjector.
The biological activity of synthetic JZTX-14 in MDA-MB-231 cells was recorded using the whole-cell patch-clamp method. MDA-MB-231 sodium channels are sensitive to JZTX-14. […] The inward sodium current was induced by a 50 ms depolarisation potential of −30 mV at a holding potential of −100 mV (Figure 3A). The inhibition by JZTX-14 was concentration-dependent (Figure 3B). […] Next, we determined the effects of JZTX-14 on the current-voltage (I–V) curves of sodium channels resulting from a series of currents induced by a set of depolarising potentials ranging from −100 to +60 mV when cells were held at −100 mV (Figure 3C). […] We also investigated the effect of JZTX-14 on the steady-state inactivation of sodium channels in MDA-MB-231 cells. […] shifted the inactivation curves for sodium channels by approximately 10 mV (Figure 3D).

MDA-MB-231 cells [2] = experiment: CCK-8 cell proliferation assay; assay type: cell-based, human
MDA-MB-231 cells [3] = experiment: Hoechst 33342/PI double staining assay; assay type: cell-based, human; conditions: 0, 6, 12.5 μM; 48 h
Description: The cells were seeded in a 6-well plate, and after their adherence to the plate, the medium was changed with a complete medium containing different concentrations of inhibitors. After 48 h of treatment, the cells were washed three times with 4°C cold PBS, and incubated with 5 μl/ml Hoechst 33,342 for 15 min. The cells were washed again three times using PBS and incubated with 5 μl/ml PI for 15 min.

MDA-MB-231 cells [4] = experiment: Scratch wound assay (cell migration); assay type: cell-based, human; conditions: 12.5 μM, DMEM/F12 containing 0.2% BSA
Description: The MDA-MB-231 cells were seeded into a six-well plate at an appropriate density to form a single layer of cells. After 12 h, a sterile 200 μl pipette tip was used to produce a linear scraping wound, which was cultured with DMEM/F12 containing 0.2% BSA and different concentrations of inhibitors. The cells were imaged at 0 h, 24 h and 48 h, after scratch induction. ImageJ software was used to analyze the images and quantify cell migration.

MDA-MB-231 cells [5] = experiment: Transwell assay (cell migration/invasion); assay type: cell-based, human; conditions: 24 h incubation, crystal violet staining
Description: Cell migration assay was performed using 24-well transwell plate (Corning, United States). 5×10^4 cells/well were seeded in the upper chamber in DMEM/F12 medium containing 0.1% BSA, the lower chamber contained DMEM/F12% and […]. After 24 h incubation, the cells on the filter membrane were washed three times with PBS, then fixed with 4% paraformaldehyde for 30 min and stained with 0.1% crystal violet for 20 min. The cells on the filter were observed by microscopy and the number of cells was determined using the quantification software ImageJ.

MDA-MB-231 cells [6] = experiment: RNA sequencing, differentially expressed genes; assay type: cell-based, human; conditions: 12.5 μM, 48 h
Description: Total RNA was extracted from untreated (C) MDA-MB-231 cells and MDA-MB-231 cells treated with a concentration of 12.5 μM JZTX-14 (GL) for 48 h using TRIzol reagent. RNA concentration was first quantified using a NanoDrop 2000 spectrophotometer and further accurately quantified using an Agilent 2100/4200 for RNA sample mass and concentration. The extracted total RNA was stored at −70°C. The sample mRNA was enriched with magnetic beads with Oligo (dT), and then the mRNA was broken into short fragments which subsequently used as a template to synthesize the first strand of cDNA with six-base random primers. The second cDNA strand was synthesized by adding buffer, dNTPs, and enzymes, and the acquired double-stranded cDNA was purified, end-repaired, A-tailed, and connected to sequencing junctions. Next, the fragment size was selected and the cDNA library was enriched by PCR amplification, followed by accurate qualification of the effective concentration of the library using qPCR. […]
The reads after rRNA removal were compared with the reference genome using Hisat2 software. Gene level quantification was performed separately for each sample using FeatureCount and combined to obtain the gene expression matrix of all samples. Correlation coefficients between samples were calculated based on the expression values (FPKM) of genes in each sample. […]

MDA-MB-231 cells [7] = experiment: Western blot analysis of EMT markers; assay type: cell-based, human; conditions: compared to controls
Description: Cells treated with different concentrations of JZTX-14 were lysed with RIPA lysis solution and samples were collected. Protein concentrations were determined by BCA assay kit (Biosharp, China) and denatured by adding SDS loading buffer (Bio-Bad, United States) followed by boiling. Equal amounts of total protein lysates were subjected to SDS-PAGE and transferred to PVDF membrane (Merck Millipore, United States), 5% BSA was used for blocking (1 h). Primary antibody (Nav1.5, E-cadherin, GAPDH and Vimentin antibody for Proteintech; N-cadherin for Immunoway) was incubated overnight at 4°C, secondary antibody (Abbkine, China) was incubated for 1 h at room temperature and the membrane was visualized by chemiluminescence.

Which results are given for `CC[C@H](C)[C@H](NC(=O)[C@@H]1CSSC[C@@H]2NC(=O)[C@@H]3CCCN3C(=O)[C@@H]3CCCN3C(=O)[C@H](CCC(N)=O)NC(=O)CNC(=O)[C@@H]3CCCN3C(=O)[C@H](Cc3c[nH]cn3)NC(=O)[C@@H]3CSSC[C@H](NC(=O)[C@H](C)NC(=O)[C@H](CC(C)C)NC(=O)CNC(=O)[C@H](CO)NC(=O)[C@H](CSSC[C@H](NC(=O)CN)C(=O)N[C@@H](CCC(N)=O)C(=O)N[C@@H](CCCCN)C(=O)N[C@@H](Cc4ccccc4)C(=O)N[C@@H](Cc4ccccc4)C(=O)N[C@@H](Cc4c[nH]c5ccccc45)C(=O)N[C@@H]([C@@H](C)O)C(=O)N3)NC2=O)C(=O)N[C@@H]([C@@H](C)O)C(=O)N[C@@H](Cc2c[nH]c3ccccc23)C(=O)N2CCC[C@H]2C(=O)N[C@@H]([C@@H](C)O)C(=O)N[C@@H](CCC(=O)O)C(=O)N[C@@H]([C@@H](C)CC)C(=O)N1)C(=O)N[C@@H](CC(C)C)C(N)=O` [JZTX-14] (H-GCQKFFWTCHPGQPPCCSGLACTWPTEICIL-NH2; disulfide 2-17, 9-22, 16-29)?
Inhibition of inward sodium currents (in words) ([1]; 500 nM and 1 μM, 50 ms depolarisation to −30 mV, holding potential −100 mV): inhibited the inward sodium currents; Shift of steady-state inactivation curves of sodium channels ([1]; 1 μM (Figure 3D), 6 cells per point, direction not given): approximately 10 mV; Shift of activation thresholds of sodium channels ([1]; 1 μM, in the depolarising direction, I–V curves from −100 to +60 mV, holding potential −100 mV): approximately 10 mV; IC50 ([1]; Hill equation fit, 50 ms depolarisation to −30 mV, holding potential −100 mV, synthetic JZTX-14, 6 cells per point, read-out: IC50, inhibition of sodium current): 401 nM; Cell survival rate (CCK-8) (MDA-MB-231 cells [2]; 1.5, 3, 6, 12.5, 25, 50, and 100 μM, 24 h, OD 450 nm): did not affect the survival rate; Cell survival rate (CCK-8) (MDA-MB-231 cells [2]; 25, 50, and 100 μM, 48 h, not statistically different compared to the control group): slightly reduced the survival rate; Apoptosis and necrosis (Hoechst 33342/PI staining) (MDA-MB-231 cells [3]): no apoptosis and necrosis; also recorded: no significant effect on the necrosis; Inhibition of migration (scratch assay) (MDA-MB-231 cells [4]; 24 h): 72%; Inhibition of migration (scratch assay) (MDA-MB-231 cells [4]; 48 h): 80%; Inhibition of cell invasion (transwell) (MDA-MB-231 cells [5]; 6 μM): 50%; Inhibition of cell invasion (transwell) (MDA-MB-231 cells [5]; 12.5 μM): 75%; Downregulated genes associated with migration and invasion (MDA-MB-231 cells [6]): ANGPTL4, S100A4, GJB3, FBXO2, PLAC1, and HMGN5; Upregulated genes associated with migration and invasion (MDA-MB-231 cells [6]): IL-24-F and SERPINB2; E-cadherin expression level (western blot) (MDA-MB-231 cells [7]; epithelial marker): significantly increased; MMP2 expression level (western blot) (MDA-MB-231 cells [7]; matrix metalloproteinase): decreased; N-cadherin expression level (western blot) (MDA-MB-231 cells [7]; mesenchymal marker): decreased; Vimentin expression level (western blot) (MDA-MB-231 cells [7]; mesenchymal marker): decreased
